Data published in the supplement of paper PMC8837787.

Tested on: Saccharomyces cerevisiae ABC16-Green Monster
Conditions: 18 h; 30 °C; YPD
Outline: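 Drug-sensitive S. cerevisiae ABC16-Green Monster cells were grown to log phase in YPD and dispensed at 200 µl per well into 96-well plates. Cultures were treated in biological duplicate with eight 1:2 compound dilutions (final 0.1–150 μM), alongside untreated cultures, for 18 h at 30 °C, and OD600 was read at 0 h and 18 h. IC50 was obtained by variable-slope nonlinear regression of log(inhibitor) versus response in GraphPad Prism, using background-subtracted readings.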

SMILES | IC50 growth inhibition [µM]
Cc1cc(C(=O)NNC(=O)c2c(C)nc3ccccn23)c2nc3n(c2n1)CCCCC3 | 41.8
Oc1ccc(C(=C(Cl)Cl)c2ccc(O)cc2)cc1 | 6.96
Cc1cc(Cl)ccc1OCc1nnc(-c2ccccn2)[nH]1 | 20.7
CN(CC1COc2ccccc2O1)C(=O)Nc1nc2ccccc2s1 (stereo not given) | 48
CC1N(C)c2ccc(/C=C/c3cc[n+](C)cc3)cc2C1(C)C (stereo not given) | 55.2
O=c1c2ccccc2[nH]c2ccc(I)cc12 [GNF-Pf-4577] | > 150
CCCC(CCC)C(=O)O [Valproic acid] | > 75
CNC(=O)c1ccccc1Nc1nc(Nc2ccc3c(c2OC)CCC[C@H](N2CCN(CCO)CC2)C3)ncc1Cl | 37.7
COc1cc(C)c2c(Oc3cccc(C(F)(F)F)c3)c(OC)cc(NC(C)CCCN)c2n1 (stereo not given) [Tafenoquine] | 101
CN[C@H]1C[C@@H](N)[C@H](O)[C@@H](O[C@@H]2O[C@H](CO)[C@H](O)[C@@H]3O[C@@]4(O[C@H]23)O[C@H]([C@H](N)CO)[C@H](O)[C@H](O)[C@H]4O)[C@@H]1O [Hygromycin B] | 13.8
COc1cc(Nc2ncc(F)c(Nc3ccc4c(n3)NC(=O)C(C)(C)O4)n2)cc(OC)c1OC [Tamatinib besilate] | > 75
CC(=O)N(C1=C(N2CCOCC2)C(=O)c2ccccc2C1=O)c1ccc(I)cc1 [GNF-Pf-3703] | 7.31
C[C@H]1CC[C@H](n2c3cnccc3c3cnc(Nc4ccc5c(n4)CCN(C(=O)CO)C5)nc32)CC1 [AMG 925] | > 75
C=CCc1ccc(O)c(-c2ccc(O)c(CC=C)c2)c1 [Honokiol] | 13.2
COc1cc(CNC(=O)CCCCC=CC(C)C)ccc1O [Capsaicin] | > 150
